From ChEMBL document CHEMBL1158488, “Investigation of the relative cellular permeability of DNA-binding pyrrole-imidazole polyamides” (J Med Chem, 2009)

Columns and labels:
HeLa = experiment: Cell permeability in human HeLa cells assessed as glucocorticoid receptor-dependent induction of luciferase activity after 40 hrs by GAL4-responsive luciferase reporter gene assay
Glucocorticoid receptor [1] = biological target: T1, Glucocorticoid receptor (Homo sapiens, UniProt P04150)
T1 sequence (P04150 whole entry): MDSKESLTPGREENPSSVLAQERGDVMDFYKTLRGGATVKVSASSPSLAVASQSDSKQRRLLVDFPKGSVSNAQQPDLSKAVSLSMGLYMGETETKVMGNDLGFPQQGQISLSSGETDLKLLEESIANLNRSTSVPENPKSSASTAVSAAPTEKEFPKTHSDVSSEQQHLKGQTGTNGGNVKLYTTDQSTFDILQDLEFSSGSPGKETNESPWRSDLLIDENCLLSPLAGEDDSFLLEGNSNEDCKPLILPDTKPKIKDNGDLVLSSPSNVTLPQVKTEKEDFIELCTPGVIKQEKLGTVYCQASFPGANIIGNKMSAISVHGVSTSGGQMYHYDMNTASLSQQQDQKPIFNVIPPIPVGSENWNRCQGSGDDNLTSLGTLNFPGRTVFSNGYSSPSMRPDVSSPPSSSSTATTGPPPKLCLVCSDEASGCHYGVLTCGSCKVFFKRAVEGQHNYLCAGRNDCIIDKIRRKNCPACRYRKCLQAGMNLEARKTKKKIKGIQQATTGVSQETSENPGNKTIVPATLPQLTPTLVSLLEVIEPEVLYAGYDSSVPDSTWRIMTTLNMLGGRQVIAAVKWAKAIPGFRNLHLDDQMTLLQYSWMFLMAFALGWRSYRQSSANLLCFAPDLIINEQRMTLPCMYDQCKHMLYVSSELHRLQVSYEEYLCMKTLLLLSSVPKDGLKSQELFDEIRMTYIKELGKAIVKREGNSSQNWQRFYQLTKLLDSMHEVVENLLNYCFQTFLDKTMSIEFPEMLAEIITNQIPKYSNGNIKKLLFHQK
Description: Displacement of fluormone from human recombinant glucocorticoid receptor ligand binding domain by fluorescence polarization assay

glucocorticoid receptor [2] = experiment: Cell permeability in human HeLa cells assessed as glucocorticoid receptor-dependent induction of luciferase activity at 6 uM after 40 hrs by GAL4-responsive luciferase reporter gene assay relative to control; settings: HeLa cells with GAL4-responsive luciferase reporter
glucocorticoid receptor [3] = experiment: Cell permeability in human HeLa cells assessed as glucocorticoid receptor-dependent induction of luciferase activity at 0.6 uM after 40 hrs by GAL4-responsive luciferase reporter gene assay relative to control; settings: HeLa cells with GAL4-responsive luciferase reporter
glucocorticoid receptor [4] = experiment: Cell permeability in human MCF7 cells assessed as glucocorticoid receptor-dependent induction of luciferase activity at 1 uM after 40 hrs by GAL4-responsive luciferase reporter gene assay relative to control; settings: MCF7 cells with GAL4-responsive luciferase reporter
MCF7 = experiment: Cell permeability in human MCF7 cells assessed as glucocorticoid receptor-dependent induction of luciferase activity after 40 hrs by GAL4-responsive luciferase reporter gene assay; settings: MCF7, 40 h

| Compound | IC50 (Glucocorticoid receptor [1]) [nM] | also measured |
| --- | --- | --- |
| C[C@H]1C[C@@H]2[C@H]3CCC4=CC(=O)C=C[C@@]4(C)[C@]3(F)[C@H](O)C[C@@]2(C)[C@]1(O)C(=O)CSCCNC(=S)NCCNC(=O)c1cc(NC(=O)c2cncn2C)cn1C | 5.7 | EC50 (HeLa): 750 nM |
| C[C@@H]1C[C@H]2[C@@H]3CCC4=CC(=O)C=C[C@]4(C)[C@@]3(F)[C@@H](O)C[C@]2(C)[C@@]1(O)C(=O)CSCCNC(=S)NCCCN(C)CCCNC(=O)CCNC(=O)c1cc(NC(=O)c2cc(NC(=O)c3nccn3C)cn2C)cn1C | 12 | – |
| C[C@H]1C[C@@H]2[C@H]3CCC4=CC(=O)C=C[C@@]4(C)[C@]3(F)[C@H](O)C[C@@]2(C)[C@]1(O)C(=O)CSCCNC(=S)NCCNC(=O)c1cc(NC(=O)c2cc(NC(=O)c3cc(NC(=O)c4nccn4C)cn3C)cn2C)cn1C | 26 | – |
| C[C@@H]1C[C@H]2[C@@H]3CCC4=CC(=O)C=C[C@]4(C)[C@@]3(F)[C@@H](O)C[C@]2(C)[C@@]1(O)C(=O)CSCCNC(=S)NCCCN(C)CCCNC(=O)CCNC(=O)c1cc(NC(=O)c2nccn2C)cn1C | 8.5 | – |
| C[C@H]1C[C@@H]2[C@H]3CCC4=CC(=O)C=C[C@@]4(C)[C@]3(F)[C@H](O)C[C@@]2(C)[C@]1(O)C(=O)CSCCNC(=S)NCCNC(=O)c1cc(NC(=O)c2cc(NC(=O)c3cc(NC(=O)c4cc(NC(=O)CCCNC(=O)c5nccn5C)cn4C)cn3C)cn2C)cn1C | 23 | – |
| C[C@H]1C[C@@H]2[C@H]3CCC4=CC(=O)C=C[C@@]4(C)[C@]3(F)[C@H](O)C[C@@]2(C)[C@]1(O)C(=O)CSCCNC(=S)NCCNC(=O)c1cc(NC(=O)c2cc(NC(=O)c3nccn3C)cn2C)cn1C | 14 | EC50 (HeLa): 1200 nM; fold induction at 40 h, 6 µM (glucocorticoid receptor [2]): 3400 |
| C[C@H]1C[C@@H]2[C@H]3CCC4=CC(=O)C=C[C@@]4(C)[C@]3(F)[C@H](O)C[C@@]2(C)[C@]1(O)C(=O)CSCCNC(=S)NCCNC(=O)c1cc(NC(=O)c2cc(NC(=O)c3cc(NC(=O)c4cc(NC(=O)c5nccn5C)cn4C)cn3C)cn2C)cn1C | 34 | – |
| C[C@H]1C[C@@H]2[C@H]3CCC4=CC(=O)C=C[C@@]4(C)[C@]3(F)[C@H](O)C[C@@]2(C)[C@]1(O)C(=O)CSCCNC(=S)NCCNC(=O)c1cc(NC(=O)c2cc(NC(=O)c3cc(NC(=O)c4cc(NC(=O)CCCNC(=O)c5cc(NC(=O)c6nccn6C)cn5C)cn4C)cn3C)cn2C)cn1C | 21 | – |
| C[C@@H]1C[C@H]2[C@@H]3CCC4=CC(=O)C=C[C@]4(C)[C@@]3(F)[C@@H](O)C[C@]2(C)[C@@]1(O)C(=O)CSCCNC(=S)NCCCN(C)CCCNC(=O)CCNC(=O)c1cc(NC(=O)c2cc(NC(=O)c3cc(NC(=O)c4cc(NC(=O)CCCNC(=O)c5cc(NC(=O)c6nccn6C)cn5C)cn4C)cn3C)cn2C)cn1C | 22 | – |
| C[C@H]1C[C@@H]2[C@H]3CCC4=CC(=O)C=C[C@@]4(C)[C@]3(F)[C@H](O)C[C@@]2(C)[C@]1(O)C(=O)CSCCNC(=S)NCCNC(=O)c1cc(NC(=O)c2cc(NC(=O)c3cc(NC(=O)c4cc(NC(=O)CCCNC(=O)c5cc(NC(=O)c6cc(NC(=O)c7nccn7C)cn6C)cn5C)cn4C)cn3C)cn2C)cn1C | 21 | – |
| CC(=O)NCCNC(=S)NCCSCC(=O)[C@@]1(O)[C@H](C)C[C@H]2[C@@H]3CCC4=CC(=O)C=C[C@]4(C)[C@@]3(F)[C@@H](O)C[C@@]21C | 9.8 | EC50 (HeLa): 290 nM; fold induction at 40 h, 0.6 µM (glucocorticoid receptor [3]): 3600 |
| C[C@@H]1C[C@H]2[C@@H]3CCC4=CC(=O)C=C[C@]4(C)[C@@]3(F)[C@@H](O)C[C@]2(C)[C@@]1(O)C(=O)CSCCNC(=S)NCCCN(C)CCCNC(=O)CCNC(=O)c1cc(NC(=O)c2cc(NC(=O)c3cc(NC(=O)c4cc(NC(=O)c5nccn5C)cn4C)cn3C)cn2C)cn1C | 16 | – |
| C[C@H]1C[C@@H]2[C@H]3CCC4=CC(=O)C=C[C@@]4(C)[C@]3(F)[C@H](O)C[C@@]2(C)[C@]1(O)C(=O)NCCNC(=O)c1cc(NC(=O)c2cc(NC(=O)c3cc(NC(=O)c4nccn4C)cn3C)cn2C)cn1C | 550 | – |
| C[C@H]1C[C@@H]2[C@H]3CCC4=CC(=O)C=C[C@@]4(C)[C@]3(F)[C@H](O)C[C@@]2(C)[C@]1(O)C(=O)NCCNC(=O)c1cc(NC(=O)c2nccn2C)cn1C | 460 | EC50 (HeLa): 4200 nM |
| C[C@@H]1C[C@H]2[C@@H]3CCC4=CC(=O)C=C[C@]4(C)[C@@]3(F)[C@@H](O)C[C@]2(C)[C@@]1(O)C(=O)CSCCNC(=S)NCCCN(C)CCCNC(=O)CCNC(=O)c1cc(NC(=O)c2cc(NC(=O)c3cc(NC(=O)c4cc(NC(=O)CCCNC(=O)c5cc(NC(=O)c6cc(NC(=O)c7cc(NC(=O)c8nccn8C)cn7C)cn6C)cn5C)cn4C)cn3C)cn2C)cn1C | – | Kd (Nucleic Acid): 5 nM |
| C[C@H]1C[C@@H]2[C@H]3CCC4=CC(=O)C=C[C@@]4(C)[C@]3(F)[C@H](O)C[C@@]2(C)[C@]1(O)C(=O)NCCNC(=O)c1cc(NC(=O)c2cc(NC(=O)c3cc(NC(=O)c4cc(NC(=O)CCCNC(=O)c5cc(NC(=O)c6cc(NC(=O)c7cc(NC(=O)c8nccn8C)cn7C)cn6C)cn5C)cn4C)cn3C)cn2C)cn1C | 840 | – |
| C[C@@H]1C[C@H]2[C@@H]3CCC4=CC(=O)C=C[C@]4(C)[C@@]3(F)[C@@H](O)C[C@]2(C)[C@@]1(O)C(=O)CSCCNC(=S)NCCCN(C)CCCNC(=O)CCNC(=O)c1cc(NC(=O)c2cc(NC(=O)c3cc(NC(=O)c4cc(NC(=O)CCCNC(=O)c5nccn5C)cn4C)cn3C)cn2C)cn1C | 16 | – |
| C[C@@H]1C[C@H]2[C@@H]3CCC4=CC(=O)C=C[C@]4(C)[C@@]3(F)[C@@H](O)C[C@]2(C)[C@@]1(O)C(=O)CSCCNC(=S)NCCCN(C)CCCNC(=O)CCNC(=O)c1cc(NC(=O)c2cc(NC(=O)c3cc(NC(=O)c4nccn4C)cn3C)cn2C)cn1C | 20 | – |
| C[C@@H]1C[C@H]2[C@@H]3CCC4=CC(=O)C=C[C@]4(C)[C@@]3(F)[C@@H](O)C[C@]2(C)[C@@]1(O)C(=O)CSCCNC(=S)NCCCN(C)CCCNC(=O)CCNC(=O)c1cc(NC(=O)c2cc(NC(=O)c3cc(NC(=O)c4cc(NC(=O)CCCNC(=O)c5cc(NC(=O)c6cc(NC(=O)c7nccn7C)cn6C)cn5C)cn4C)cn3C)cn2C)cn1C | 20 | – |
| CC(=O)NCCC(=O)NCCCN(C)CCCNC(=S)NCCSCC(=O)[C@@]1(O)[C@H](C)C[C@H]2[C@@H]3CCC4=CC(=O)C=C[C@]4(C)[C@@]3(F)[C@@H](O)C[C@@]21C | 9.3 | fold induction at 40 h, 1 µM (glucocorticoid receptor [4]): 1200; fold induction at 40 h, 6 µM (glucocorticoid receptor [2]): 600; EC50 (MCF7): 250 nM |
| C[C@H]1C[C@@H]2[C@H]3CCC4=CC(=O)C=C[C@@]4(C)[C@]3(F)[C@H](O)C[C@@]2(C)[C@]1(O)C(=O)CSCCNC(=S)NCCNC(=O)c1cc(NC(=O)c2cc(NC(=O)c3cc(NC(=O)c4cc(NC(=O)CCCNC(=O)c5cc(NC(=O)c6cc(NC(=O)c7cc(NC(=O)c8nccn8C)cn7C)cn6C)cn5C)cn4C)cn3C)cn2C)cn1C | 27 | fold induction at 40 h, 6 µM (glucocorticoid receptor [2]): 1500 |
| C[C@@H]1C[C@H]2[C@@H]3CCC4=CC(=O)C=C[C@]4(C)[C@@]3(F)[C@@H](O)C[C@]2(C)[C@@]1(O)C(N)=O [OXDEX] | – | EC50 (HeLa): 35000 nM |
